The experiment relates to Gardner 6C3HED lymphosarcoma ip, C3AKF1 mice, survival T/C. Kind of experiment: NCI In Vivo Anticancer Drug Screen. Data for tumor model Lymphosarcoma Gardner 6C3HED (intraperitoneal) in C3AKF1 (CHKRF1) mice. To be noted: endpoint: survival time, mean or median, higher = longer survival. How it is done: The antitumor activity of compounds was measured in mice bearing transplantable tumors. Survival or tumor size were measured and the results are expressed as the measurement made in the treated group (T) divided by the measurement made in the vehicle treated control group (C). The tumor model used in this assay is Lymphosarcoma Gardner 6C3HED (intraperitoneal) in C3AKF1 (CHKRF1) mice

Where [1] appears, read: dose: 18.8 mg/kg/injection, schedule: Q01DX010 (ip), vehicle: saline.
[2] abbreviates: dose: 37.5 mg/kg/injection, schedule: Q01DX010 (ip), vehicle: saline.
The mark [3] stands for this setting: dose: 75.0 mg/kg/injection, schedule: Q01DX010 (ip), vehicle: saline.
The mark [4] stands for this setting: dose: 150.0 mg/kg/injection, schedule: Q01DX010 (ip), vehicle: saline.
The mark [5] stands for this setting: dose: 5.0 mg/kg/injection, schedule: Q01DX010 (ip), vehicle: saline.
Setting [6] is: dose: 10.0 mg/kg/injection, schedule: Q01DX010 (ip), vehicle: saline.
Setting [7] is: dose: 20.0 mg/kg/injection, schedule: Q01DX010 (ip), vehicle: saline.
Setting [8] is: dose: 40.0 mg/kg/injection, schedule: Q01DX010 (ip), vehicle: saline.
Setting [9] is: dose: 3.13 mg/kg/injection, schedule: Q01DX010 (ip), vehicle: saline.
Where [10] appears, read: dose: 0.13 mg/kg/injection, schedule: Q01DX010 (ip), vehicle: saline.
The mark [11] stands for this setting: dose: 0.25 mg/kg/injection, schedule: Q01DX010 (ip), vehicle: saline.
Where [12] appears, read: dose: 0.5 mg/kg/injection, schedule: Q01DX010 (ip), vehicle: saline.
The mark [13] stands for this setting: dose: 6.25 mg/kg/injection, schedule: Q01DX010 (ip), vehicle: saline.
The mark [14] stands for this setting: dose: 12.5 mg/kg/injection, schedule: Q01DX010 (ip), vehicle: saline.
Setting [15] is: dose: 1.0 mg/kg/injection, schedule: Q01DX010 (ip), vehicle: saline.
Where [16] appears, read: dose: 4.0 mg/kg/injection, schedule: Q01DX010 (ip), vehicle: saline.
Setting [17] is: dose: 2.5 mg/kg/injection, schedule: Q01DX010 (ip), vehicle: saline.
Where [18] appears, read: dose: 2.0 mg/kg/injection, schedule: Q01DX010 (ip), vehicle: saline.
The mark [19] stands for this setting: dose: 25.0 mg/kg/injection, schedule: Q01DX010 (ip), vehicle: saline.
The mark [20] stands for this setting: dose: 8.0 mg/kg/injection, schedule: Q01DX010 (ip), vehicle: saline.
The mark [21] stands for this setting: dose: 16.0 mg/kg/injection, schedule: Q01DX010 (ip), vehicle: saline.
The mark [22] stands for this setting: dose: 50.0 mg/kg/injection, schedule: Q01DX010 (ip), vehicle: saline.

Where “and” joins values, the source holds several entries; their conditions need not be identical. Identical values can stand only once. Toxic doses and inconclusive results are not listed.

As for `CN(C)c1nc(N(C)C)nc(N(C)C)n1`, the T/C is 104 % of control under setting [1]; 104 % of control under setting [2]; 95 % of control and 100 % of control under setting [3]; 100 % of control and 104 % of control under setting [4].

Regarding `CN(C)c1ccc(/C=C/c2ccnc3ccccc23)cc1`, the T/C runs as follows: under setting [5], 96 % of control; under setting [6], 92 % of control; under setting [7], 92 % of control.

With `OCC1OC(n2cnc3c(=S)nc[nH]c32)C(O)C1O` (stereo not given), the T/C is, setting by setting: under setting [7], 90 % of control and 95 % of control; under setting [8], 86 % of control; (dose: 80.0 mg/kg/injection, schedule: Q01DX010 (ip), vehicle: saline) 90 % of control; (dose: 160.0 mg/kg/injection, schedule: Q01DX010 (ip), vehicle: saline) 86 % of control and 90 % of control.

Take `Clc1ncnc2nc[nH]c12`: the T/C was 87 % of control and 95 % of control (dose: 7.5 mg/kg/injection, schedule: Q01DX010 (ip), vehicle: saline); 95 % of control (dose: 15.0 mg/kg/injection, schedule: Q01DX010 (ip), vehicle: saline); 95 % of control (dose: 30.0 mg/kg/injection, schedule: Q01DX010 (ip), vehicle: saline).

On to `CS(=O)(=O)OCCCCOS(C)(=O)=O`, for which the T/C is 100 % of control (dose: 1.56 mg/kg/injection, schedule: Q01DX010 (ip), vehicle: saline); 100 % of control and 104 % of control under setting [9].

Regarding `CSCS(=O)C[C@H](CO)NC(=O)/C=C/c1c(C)[nH]c(=O)[nH]c1=O` (stereo not given in full), the T/C is 87 % of control under setting [10]; 90 % of control under setting [11]; 90 % of control and 91 % of control under setting [12].

On to `CCCNc1ncnc2[nH]ncc12`, for which the T/C runs as follows: under setting [9], 86 % of control and 90 % of control; under setting [13], 90 % of control; under setting [14], 90 % of control and 95 % of control.

For the compound `NC(=O)N(CCCl)N=O`, the T/C under setting [12] is 150 % of control and 204 % of control; the T/C under setting [15] was 250 % of control and 254 % of control; the T/C under setting [16] was 86 % of control.

Consider `Cc1cc(N(CCCl)CCCl)ccc1N=Nc1ccccc1C(=O)O`, for which the T/C runs as follows: under setting [5], 109 % of control and 116 % of control; under setting [6], 113 % of control; under setting [7], 118 % of control.

As for `Oc1cc(CN(CCCl)CCCl)c(O)cc1CN(CCCl)CCCl`, the T/C is 113 % of control (dose: 0.63 mg/kg/injection, schedule: Q01DX010 (ip), vehicle: saline); 168 % of control under setting [17]; 91 % of control and 122 % of control under setting [5].

As for `NC(Cc1c[nH]c2ccc(N(CCCl)CCCl)cc12)C(=O)O` (stereo not given), the T/C under setting [12] is 159 % of control; the T/C under setting [15] was 159 % of control and 181 % of control; the T/C under setting [18] is 195 % of control and 231 % of control.

For `N=[N+]=CC(=O)OCC(N)C(=O)O` (stereo not given), the T/C by setting is: under setting [13], 150 % of control; under setting [19], 95 % of control.

Consider `Nc1nc(=S)c2[nH]cnc2[nH]1`, for which the T/C (dose: 1.25 mg/kg/injection, schedule: Q01DX010 (ip), vehicle: other) was 95 % of control and 100 % of control; the T/C (dose: 1.25 mg/kg/injection, schedule: Q01DX010 (ip), vehicle: saline) was 120 % of control; the T/C (dose: 2.5 mg/kg/injection, schedule: Q01DX010 (ip), vehicle: other) was 104 % of control; the T/C under setting [17] is 100 % of control and 110 % of control; the T/C (dose: 5.0 mg/kg/injection, schedule: Q01DX010 (ip), vehicle: other) is 113 % of control; the T/C under setting [5] was 100 % of control and 105 % of control. Further, the T/C reads like this: (dose: 10.0 mg/kg/injection, schedule: Q01DX010 (ip), vehicle: other) 95 % of control; under setting [6], 100 % of control and 120 % of control.

In the case of `NC(Cc1ccc(N(CCCl)CCCl)cc1)C(=O)O` (stereo not given), the T/C under setting [20] is 160 % of control; the T/C under setting [6] is 103 % of control; the T/C under setting [21] is 100 % of control and 105 % of control.

For the compound `O=C1C(NC(=O)C2CCCCC2)=C(N2CC2)C(=O)C(NC(=O)C2CCCCC2)=C1N1CC1`, the T/C was 92 % of control under setting [19] and 92 % of control under setting [22].

With `CC(=O)Nc1ccc2nc3ccc(NC(C)=O)cc3[n+](-c3ccccc3)c2c1`, the T/C runs as follows: under setting [14], 111 % of control; under setting [19], 107 % of control; under setting [22], 103 % of control; (dose: 100.0 mg/kg/injection, schedule: Q01DX010 (ip), vehicle: saline) 103 % of control.

Take `CN(N=O)C(=O)NC(C=O)C(O)C(O)C(O)CO` (stereo not given): the T/C reads like this: under setting [8], 300 % of control; (dose: 60.0 mg/kg/injection, schedule: Q01DX010 (ip), vehicle: saline) 300 % of control; (dose: 135.0 mg/kg/injection, schedule: Q01DX010 (ip), vehicle: saline) 95 % of control and 100 % of control.

Regarding `O=C(Nc1ccc(C2=NCCN2)cc1)c1ccc(C(=O)Nc2ccc(C3=NCCN3)cc2)c(Cl)c1`, the T/C was 116 % of control (dose: 2.0 mg/kg/injection, schedule: Q01DX010 (ip), vehicle: other); 150 % of control and 159 % of control (dose: 4.0 mg/kg/injection, schedule: Q01DX010 (ip), vehicle: other); 225 % of control and 245 % of control (dose: 8.0 mg/kg/injection, schedule: Q01DX010 (ip), vehicle: other); 216 % of control and 268 % of control (dose: 16.0 mg/kg/injection, schedule: Q01DX010 (ip), vehicle: other); 191 % of control and 200 % of control (dose: 32.0 mg/kg/injection, schedule: Q01DX010 (ip), vehicle: other).

On to `CS(=O)(=O)OCCCl`, for which the T/C is, setting by setting: under setting [1], 100 % of control; under setting [2], 100 % of control; under setting [3], 95 % of control; under setting [4], 100 % of control.

As for `CC/C(=C(/CC)c1ccc(O)cc1)c1ccc(O)cc1`, the T/C runs as follows: (dose: 12.5 mg/kg/injection, schedule: Q01DX010 (sc), vehicle: steriod suspending solution) 104 % of control and 105 % of control; (dose: 25.0 mg/kg/injection, schedule: Q01DX010 (sc), vehicle: steriod suspending solution) 100 % of control and 105 % of control; (dose: 50.0 mg/kg/injection, schedule: Q01DX010 (sc), vehicle: steriod suspending solution) 95 % of control and 100 % of control; (dose: 100.0 mg/kg/injection, schedule: Q01DX010 (sc), vehicle: steriod suspending solution) 95 % of control and 100 % of control.

For the compound `N=C(N)c1ccc(Nc2ccc(C(=N)N)cc2)cc1`, the T/C (dose: 3.0 mg/kg/injection, schedule: Q01DX010 (ip), vehicle: saline) was 103 % of control; the T/C (dose: 6.0 mg/kg/injection, schedule: Q01DX010 (ip), vehicle: saline) is 96 % of control; the T/C (dose: 12.0 mg/kg/injection, schedule: Q01DX010 (ip), vehicle: saline) is 96 % of control.

As to `C[C@H](N)C(=O)N[C@@H]1[C@H]2C(=C(O)C[C@@H](O)[C@@H]2O)C(=O)O[C@@H]1C`, the T/C was 110 % of control under setting [4]; 110 % of control and 115 % of control (dose: 300.0 mg/kg/injection, schedule: Q01DX010 (ip), vehicle: saline); 120 % of control (dose: 600.0 mg/kg/injection, schedule: Q01DX010 (ip), vehicle: saline); 115 % of control and 120 % of control (dose: 1200.0 mg/kg/injection, schedule: Q01DX010 (ip), vehicle: saline).

As for `CC(CCC(C)OS(C)(=O)=O)OS(C)(=O)=O` (stereo not given), the T/C was 100 % of control under setting [18], 104 % of control under setting [16], 104 % of control under setting [20] and 116 % of control under setting [21].

For `C1CN1c1nc(N2CC2)nc(N2CC2)n1`, the T/C is 100 % of control and 105 % of control under setting [10]; 110 % of control and 115 % of control under setting [11]; 120 % of control under setting [12]; 95 % of control under setting [15]; 110 % of control (dose: 1.5 mg/kg/injection, schedule: Q01DX010 (ip), vehicle: saline).

The values above are taken from PubChem BioAssay AID232 (DTP/NCI, 2004).
